Assay results published in article PMC10469817, “A novel UHPLC‒MS/MS method for quantitative analysis of zanubrutinib in rat plasma: application to an in vivo interaction study between zanubrutinib and triazole antifungal” (BMC Chemistry, 2023).
Where two headings read alike, the source gives them in different places. Each block holds one compound with its values, some of them ahead of it.

What was measured:
[1] = DDI study: pharmacokinetics of zanubrutinib in rats alone or with fluconazole / isavuconazole; format: in vivo, Sprague–Dawley (SD) rats; details: for AUC(0-inf) / AUC(0-t) / Cmax / Tmax / half-life / CL/F / MRT last / MRT inf / Vd/F: rat, plasma, po, zanubrutinib 30 mg/kg gavage, n = 6, mean ± SD; for CL/F: read-out: CLz/F (converted); for MRT last: read-out: MRT(0−t); for MRT inf: read-out: MRT(0−∞); for Vd/F: read-out: Vz/F; for time to peak: in h (unit assumed); for peak plasma concentration: in ng/mL; for area under the curve: in µg·h/L
Protocol: The separation procedures were processed using a Shim-pack velox C18 column (2.1 × 50 mm, 2.7 μm) at 40 degrees Celsius. The mobile phases were 0.1% formic acid-water and methanol. The gradient elution mode (each injection = 3 min) was applied as follows: the first 0-0.5 min was maintained at 10% methanol, followed by linearly increasing to 80% methanol (0.5–0.8 min) and keeping 80% methanol for 0.8–1.5 min. […] At the stage of the analysis process, the sample injection volume and flow rate were set as 2 µL and 0.4 mL/min, respectively.
Triple quadrupole mass spectrometry (Shimadzu Corp., Tokyo, Japan) was utilized for sample detection. The parameters for this procedure were set as follows: the detector voltage, heating block temperature, flow of atomizing gas, and drying gas were set as 4.5 kV, 400 °C, 3 L/min and 5 L/min, respectively. Multiple reaction monitoring (MRM) mode was performed to detect the precursor and product ions of the IS and analyte. The first and second signal strength product ions were applied to quantitation and qualification, respectively, to ensure the specificity of the detection. In addition, the retention times of the IS and analyte were also considered to further improve the detection specificity.
Eighteen SD rats were randomly split into three groups (Groups A-C). […] The same dose (0.5% CMC-Na) was administered to Group A (control group). After half an hour, each rat was treated with 30 mg/kg zanubrutinib. Thereafter, rat blood samples (0.3 mL) from the caudal vein at a series of time points (0.083, 0.5, 1, 2, 3, 4, 5, 6, 8, and 12 h) were collected in heparin tubes. The blood samples were centrifuged at 13,000 × g for 10 min at 4 °C, followed by separation of plasma and storage at -80 °C.
Prior to the experiment, the − 80 °C stored rat plasma samples were placed at room temperature for thawing. At the protein precipitation stage, 40 µL IS, 200 µL acetonitrile, and 100 µL plasma were collectively added to a 1.5 mL centrifuge tube, vortexed to mix thoroughly, and centrifuged at 12,000 × g for 10 min. Afterwards, 100 µL supernatant was transferred to a centrifuge tube and gently mixed with 100 µL ultrapure water for UHPLC–MS/MS analysis.

[2] = Stability of zanubrutinib in rat plasma under different storage conditions; format: in vitro ADME; details: for Stability in rat plasma, RE(%): n = 6
Protocol: Under a series of storage conditions, each concentration of rat plasma QC samples (2, 40 and 800 ng/mL) was evaluated in 6 replicates to explore the stability of the method. This experiment determines the stabilities of the QC samples during analyses and different storage conditions. […] The testing results with RSD% (< 15%) and RE% (± 15%) were considered stable.

[3] = set-up: method as in PMID 31340982; details: cited from earlier work
[4] = set-up: method as in PMID 31875923; details: healthy volunteers, combined with itraconazole (CYP3A4 inhibitor); cited from earlier work
[5] = test system: IL-2-induced kinase (ITK); set-up: method as in PMID 31171645; details: compared to ibrutinib; cited from earlier work
BTK = test system: BTK; set-up: method as in PMID 31340982; details: peripheral blood mononuclear cells (PBMCs) and peripheral lymph nodes in patients with B-cell lymphoma; cited from earlier work
CYP3A4 [6] = test system: CYP3A4; set-up: method as in PMID 34252374; details: in vitro experiments; to phenoxy phenyl hydroxylation metabolites; cited from earlier work
CYP3A4 [7] = test system: CYP3A4; set-up: method as in PMID 16205037, PMID 30477963; details: cited from earlier work
[8] = Sprague-Dawley, 30 mg/kg, rats, Group A: the control group (0.5% CMC-Na)
[9] = Sprague-Dawley, 30 mg/kg, rats, Group B: 20 mg/kg isavuconazole
[10] = Sprague-Dawley, 30 mg/kg, rats, Group C: 20 mg/kg fluconazole
[11] = rats, zanubrutinib (30 mg/kg) alone
[12] = rats, zanubrutinib (30 mg/kg) coadministered with fluconazole (20 mg/kg)
[13] = rats, zanubrutinib (30 mg/kg) coadministered with isavuconazole (20 mg/kg)
[14] = single administration of 320 mg

- concentration at 1 h ([1]; Sprague-Dawley, 30 mg/kg, a rat plasma sample obtained 1 h after oral administration of zanubrutinib): 230 ng/mL
- AUC(0-inf) [1, 8]: 1090 ± 44.2 ng·h/mL
- AUC(0-t) [1, 8]: 1080 ± 43.8 ng·h/mL
- Cmax [1, 8]: 332 ± 52.8 ng/mL
- Tmax [1, 8]: 1.83 ± 0.41 h
- half-life [1, 8]: 1.34 ± 0.11 h
- CL/F [1, 8]: 461 mL/min/kg
- MRT last [1, 8]: 2.71 ± 0.1 h
- MRT inf [1, 8]: 2.76 ± 0.09 h
- Vd/F [1, 8]: 53.2 ± 3.64 L/kg
- AUC(0-inf) [1, 9]: 1270 ± 78 ng·h/mL
- AUC(0-t) [1, 9]: 1270 ng·h/mL
- Cmax [1, 9]: 396 ± 37.2 ng/mL
- Tmax [1, 9]: 2 h
- half-life [1, 9]: 1.42 ± 0.56 h
- CL/F [1, 9]: 394 mL/min/kg
- MRT last [1, 9]: 2.76 ± 0.07 h
- MRT inf [1, 9]: 2.82 ± 0.09 h
- Vd/F [1, 9]: 49 ± 21.1 L/kg
- AUC(0-inf) [1, 10]: 1730 ± 218 ng·h/mL
- AUC(0-t) [1, 10]: 1720 ± 219 ng·h/mL
- Cmax [1, 10]: 495 ± 131 ng/mL
- Tmax [1, 10]: 2.17 ± 0.41 h
- half-life [1, 10]: 1.37 ± 0.16 h
- CL/F [1, 10]: 293 mL/min/kg
- MRT last [1, 10]: 2.95 ± 0.14 h
- MRT inf [1, 10]: 3 ± 0.14 h
- Vd/F [1, 10]: 34.8 ± 6.57 L/kg
- time to peak [1, 11]: 1.83 ± 0.41
- peak plasma concentration [1, 11]: 332.00 ± 52.79
- area under the curve [1, 11]: 1081.67 ± 43.81
- time to peak [1, 12]: 2.17 ± 0.41
- peak plasma concentration [1, 12]: 494.51 ± 130.68
- area under the curve [1, 12]: 1721.61 ± 219.36
- time to peak [1, 13]: 2.00 ± 0.00
- peak plasma concentration [1, 13]: 396.05 ± 37.19
- area under the curve [1, 13]: 1267.55 ± 79.35
- Stability in rat plasma, RE(%) ([2]; 4 °C (24 h), 2 ng/mL): 1.3%
- Stability in rat plasma, RE(%) ([2]; 4 °C (24 h), 40 ng/mL): 1.4%
- Stability in rat plasma, RE(%) ([2]; 4 °C (24 h), 800 ng/mL): 1.0%
- Stability in rat plasma, RE(%) ([2]; -80 °C (long-term), 2 ng/mL): 2.5%
- Stability in rat plasma, RE(%) ([2]; -80 °C (long-term), 40 ng/mL): 1.5%
- Stability in rat plasma, RE(%) ([2]; -80 °C (long-term), 800 ng/mL): 4.0%
- Stability in rat plasma, RE(%) ([2]; Room temperature (4 h), 2 ng/mL): -0.2%
- Stability in rat plasma, RE(%) ([2]; Room temperature (4 h), 40 ng/mL): -1.4%
- Stability in rat plasma, RE(%) ([2]; Room temperature (4 h), 800 ng/mL): -2.3%
- Stability in rat plasma, RE(%) ([2]; Three freeze‒thaw, 2 ng/mL): -1.8%
- Stability in rat plasma, RE(%) ([2]; Three freeze‒thaw, 40 ng/mL): 2.6%
- Stability in rat plasma, RE(%) ([2]; Three freeze‒thaw, 800 ng/mL): -0.4%
- stability in plasma under the assessed storage conditions ([2]; room temperature, 4 degrees Celsius refrigeration, freeze thawing, cryopreservation for long-term): stable
SMILES: C=CC(=O)N1CCC([C@@H]2CCNc3c(C(N)=O)c(-c4ccc(Oc5ccccc5)cc4)nn32)CC1 [zanubrutinib]
- time of peak concentration (Tmax) ([3]; patients with malignant lymphoma, oral administration): approximately 2 h
- mean half-life (t1/2) [3, 14]: approximately 4 h
- mean peak concentration (Cmax) [3, 14]: 658 ng/mL
- AUC increased to (combined with itraconazole) [4]: 143%
- Cmax increased to (combined with itraconazole) [4]: 154%
- times lower at inhibiting IL-2-induced kinase (ITK) than ibrutinib [5]: more than 20 times
- efficacy of BTK inhibition (BTK): ~100%
- enzyme primarily metabolizing zanubrutinib (CYP3A4 [6]): CYP3A4

SMILES: OC(Cn1cncn1)(Cn1cncn1)c1ccc(F)cc1F [fluconazole]
- CYP3A4 inhibition (CYP3A4 [7]): CYP3A4 enzyme inhibitors

- inhibitory effect on the metabolism of zanubrutinib ([1]; rats, 20 mg/kg antifungal by gavage half an hour before 30 mg/kg zanubrutinib): obvious inhibitory effect
SMILES: C[C@@H](c1nc(-c2ccc(C#N)cc2)cs1)[C@](O)(Cn1cncn1)c1cc(F)ccc1F [isavuconazole]
- CYP3A4 inhibition (CYP3A4 [7]): CYP3A4 enzyme inhibitors
